Columns and labels:
Details in all cases: 48 h
[1] = tested on: NOMO1; test: cell viability relative to DMSO control; higher = less cytotoxic
Summary of the method: (§1)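 In 1536-well plates, 5 μl of leukemia cells were seeded per well: 500 cells/well for NOMO1 or SEM and 1000 cells/well for P12-Ichikawa. Each line had first been adapted for at least four passages in each medium. Library compounds in DMSO were pin-dosed at 11 threefold concentrations between 47 μM and 0.79 nM, and CellTiter-Glo One luminescence was read after 48 h at 37°C. Viability is a per-plate percentage relative to DMSO wells, with cell-free wells as background.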

[2] = tested on: SEM cells; test: as above
Summary of the method: as §1

[3] = tested on: P12-Ichikawa; test: as above
Summary of the method: as §1

[4] = tested on: NOMO1; test: AUC of viability dose-response curve (% viability x log10 dose units); higher = less sensitive
Summary of the method: (§2)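 Viability of medium-adapted leukemia cells was measured by CellTiter-Glo One luminescence after 48 h at 37°C with library compounds in DMSO. Doses were 11 threefold steps from 47 μM to 0.79 nM, in 1536-well plates at 500 or 1000 cells/well. Signals were normalised per plate to DMSO and cell-free wells and fitted with a four-parameter log-logistic model on log10 dose. Area under the curve was integrated by trapezoidal rule, with curves exceeding full viability scaled and failed quality-control curves removed.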

[5] = tested on: SEM cells; test: as above
Summary of the method: as §2

[6] = tested on: P12-Ichikawa; test: as above
Summary of the method: as §2

O=C1CCc2cc(OCCCCc3nnnn3C3CCCCC3)ccc2N1
cell viability [%]
Details | [1] | [2] | [3]
HPLM + 10% dialyzed FBS, 0.000781 µM | 92.2 | 79.2 | 90.5
HPLM + 10% dialyzed FBS, 0.00234 µM | 86.5 | 83.1 | 92.6
HPLM + 10% dialyzed FBS, 0.00702 µM | 92.8 | 101 | 87.5
HPLM + 10% dialyzed FBS, 0.0211 µM | 99.6 | 92 | 95.7
HPLM + 10% dialyzed FBS, 0.0632 µM | 97.6 | 92.9 | 96.4
HPLM + 10% dialyzed FBS, 0.19 µM | 98.9 | 83.8 | 97.6
HPLM + 10% dialyzed FBS, 0.569 µM | 107 | 88.8 | 94.2
HPLM + 10% dialyzed FBS, 1.71 µM | 86 | 96.2 | 95.6
HPLM + 10% dialyzed FBS, 5.12 µM | 108 | 97.8 | 96
HPLM + 10% dialyzed FBS, 15.4 µM | 124 | 104 | 97.4
HPLM + 10% dialyzed FBS, 46.1 µM | 111 | 99.3 | 96.9
RPMI 5 mM glucose + 10% FBS, 0.000781 µM | 93 | 88.8 | 78.9
RPMI 5 mM glucose + 10% FBS, 0.00234 µM | 94.7 | 88.8 | 93.8
RPMI 5 mM glucose + 10% FBS, 0.00702 µM | 91.3 | 92 | 89.2
RPMI 5 mM glucose + 10% FBS, 0.0211 µM | 82.8 | 91.5 | 81
RPMI 5 mM glucose + 10% FBS, 0.0632 µM | 85.8 | 88.7 | 91.2
RPMI 5 mM glucose + 10% FBS, 0.19 µM | 98.4 | 75.7 | 94.2
RPMI 5 mM glucose + 10% FBS, 0.569 µM | 88.2 | 107 | 98.1
RPMI 5 mM glucose + 10% FBS, 1.71 µM | 88.7 | 104 | 95.8
RPMI 5 mM glucose + 10% FBS, 5.12 µM | 92.4 | 89.2 | 85.2
RPMI 5 mM glucose + 10% FBS, 15.4 µM | 91.2 | 104 | 98.5
RPMI 5 mM glucose + 10% FBS, 46.1 µM | 91.4 | 81.3 | 99.2
RPMI 5 mM glucose + 10% dialyzed FBS, 0.000781 µM | 88.6 | 80.1 | 90.2
RPMI 5 mM glucose + 10% dialyzed FBS, 0.00234 µM | 93 | 90 | 88.1
RPMI 5 mM glucose + 10% dialyzed FBS, 0.00702 µM | 88.8 | 100 | 90
RPMI 5 mM glucose + 10% dialyzed FBS, 0.0211 µM | 95.7 | 86.2 | 94.6
RPMI 5 mM glucose + 10% dialyzed FBS, 0.0632 µM | 88 | 78.5 | 88.4
RPMI 5 mM glucose + 10% dialyzed FBS, 0.19 µM | 93.1 | 87.6 | 91.8
RPMI 5 mM glucose + 10% dialyzed FBS, 0.569 µM | 96.9 | 92.2 | 95.9
RPMI 5 mM glucose + 10% dialyzed FBS, 1.71 µM | 96.5 | 92.7 | 90.2
RPMI 5 mM glucose + 10% dialyzed FBS, 5.12 µM | 109 | 101 | 89.6
RPMI 5 mM glucose + 10% dialyzed FBS, 15.4 µM | 93.9 | 90.6 | 88.1
RPMI 5 mM glucose + 10% dialyzed FBS, 46.1 µM | 96 | 88.2 | 87.1

AUC of viability dose-response curve
Details | [4] | [5] | [6]
HPLM + 10% dialyzed FBS | 411 | 439 | 452
RPMI 5 mM glucose + 10% FBS | 433 | 438 | 436
RPMI 5 mM glucose + 10% dialyzed FBS | 451 | 428 | 431

COc1ccccc1OCC(O)CN1CCN(CC(=O)Nc2c(C)cccc2C)CC1 (stereo unspecified)
cell viability [%]
Details | [1] | [2] | [3]
HPLM + 10% dialyzed FBS, 0.000781 µM | 109 | 81.9 | 122
HPLM + 10% dialyzed FBS, 0.00234 µM | 117 | 101 | 119
HPLM + 10% dialyzed FBS, 0.00702 µM | 142 | 98 | 127
HPLM + 10% dialyzed FBS, 0.0211 µM | 142 | 121 | 127
HPLM + 10% dialyzed FBS, 0.0632 µM | 129 | 126 | 130
HPLM + 10% dialyzed FBS, 0.19 µM | 157 | 123 | 132
HPLM + 10% dialyzed FBS, 0.569 µM | 168 | 111 | 135
HPLM + 10% dialyzed FBS, 1.71 µM | 154 | 118 | 132
HPLM + 10% dialyzed FBS, 5.12 µM | 138 | 136 | 140
HPLM + 10% dialyzed FBS, 15.4 µM | 138 | 130 | 112
HPLM + 10% dialyzed FBS, 46.1 µM | 137 | 136 | 110
RPMI 5 mM glucose + 10% FBS, 0.000781 µM | 115 | 104 | –
RPMI 5 mM glucose + 10% FBS, 0.00234 µM | 131 | 135 | –
RPMI 5 mM glucose + 10% FBS, 0.00702 µM | 125 | 122 | –
RPMI 5 mM glucose + 10% FBS, 0.0211 µM | 167 | 128 | –
RPMI 5 mM glucose + 10% FBS, 0.0632 µM | 139 | 134 | –
RPMI 5 mM glucose + 10% FBS, 0.19 µM | 155 | 148 | –
RPMI 5 mM glucose + 10% FBS, 0.569 µM | 141 | 123 | –
RPMI 5 mM glucose + 10% FBS, 1.71 µM | 136 | 142 | –
RPMI 5 mM glucose + 10% FBS, 5.12 µM | 144 | 134 | –
RPMI 5 mM glucose + 10% FBS, 15.4 µM | 139 | 129 | –
RPMI 5 mM glucose + 10% FBS, 46.1 µM | 141 | 131 | –
RPMI 5 mM glucose + 10% dialyzed FBS, 0.000781 µM | – | 115 | –
RPMI 5 mM glucose + 10% dialyzed FBS, 0.00234 µM | – | 128 | –
RPMI 5 mM glucose + 10% dialyzed FBS, 0.00702 µM | – | 114 | –
RPMI 5 mM glucose + 10% dialyzed FBS, 0.0211 µM | – | 136 | –
RPMI 5 mM glucose + 10% dialyzed FBS, 0.0632 µM | – | 125 | –
RPMI 5 mM glucose + 10% dialyzed FBS, 0.19 µM | – | 135 | –
RPMI 5 mM glucose + 10% dialyzed FBS, 0.569 µM | – | 137 | –
RPMI 5 mM glucose + 10% dialyzed FBS, 1.71 µM | – | 121 | –
RPMI 5 mM glucose + 10% dialyzed FBS, 5.12 µM | – | 132 | –
RPMI 5 mM glucose + 10% dialyzed FBS, 15.4 µM | – | 130 | –
RPMI 5 mM glucose + 10% dialyzed FBS, 46.1 µM | – | 126 | –

AUC of viability dose-response curve
Details | [4] | [5] | [6]
HPLM + 10% dialyzed FBS | 460 | 433 | 467
RPMI 5 mM glucose + 10% FBS | 453 | 471 | 469
RPMI 5 mM glucose + 10% dialyzed FBS | 465 | 469 | 468

CC(=O)OCC(CCn1cnc2cnc(N)nc21)COC(C)=O
cell viability [%]
Details | [1] | [2] | [3]
HPLM + 10% dialyzed FBS, 0.000781 µM | 80 | 83.4 | 92.3
HPLM + 10% dialyzed FBS, 0.00234 µM | 105 | 65.5 | 103
HPLM + 10% dialyzed FBS, 0.00702 µM | 89.9 | 93.6 | 109
HPLM + 10% dialyzed FBS, 0.0211 µM | 98.4 | 84.8 | 106
HPLM + 10% dialyzed FBS, 0.0632 µM | 102 | 97.3 | 113
HPLM + 10% dialyzed FBS, 0.19 µM | 113 | 101 | 102
HPLM + 10% dialyzed FBS, 0.569 µM | 102 | 105 | 108
HPLM + 10% dialyzed FBS, 1.71 µM | 120 | 101 | 106
HPLM + 10% dialyzed FBS, 5.12 µM | 112 | 97.7 | 112
HPLM + 10% dialyzed FBS, 15.4 µM | 103 | 109 | 110
HPLM + 10% dialyzed FBS, 46.1 µM | 101 | 90.8 | 111
RPMI 5 mM glucose + 10% FBS, 0.000781 µM | 91.7 | 85.9 | 89.8
RPMI 5 mM glucose + 10% FBS, 0.00234 µM | 101 | 71.3 | 95
RPMI 5 mM glucose + 10% FBS, 0.00702 µM | 92.8 | 69.2 | 103
RPMI 5 mM glucose + 10% FBS, 0.0211 µM | 93.1 | 97.5 | 103
RPMI 5 mM glucose + 10% FBS, 0.0632 µM | 93.9 | 88.1 | 108
RPMI 5 mM glucose + 10% FBS, 0.19 µM | 106 | 98.3 | 97.3
RPMI 5 mM glucose + 10% FBS, 0.569 µM | 98.9 | 98.2 | 102
RPMI 5 mM glucose + 10% FBS, 1.71 µM | 108 | 103 | 102
RPMI 5 mM glucose + 10% FBS, 5.12 µM | 104 | 97.4 | 101
RPMI 5 mM glucose + 10% FBS, 15.4 µM | 94.2 | 103 | 106
RPMI 5 mM glucose + 10% FBS, 46.1 µM | 92.7 | 109 | 103
RPMI 5 mM glucose + 10% dialyzed FBS, 0.000781 µM | 92.4 | 79.3 | 92.5
RPMI 5 mM glucose + 10% dialyzed FBS, 0.00234 µM | 91.3 | 79.8 | 101
RPMI 5 mM glucose + 10% dialyzed FBS, 0.00702 µM | 104 | 74.9 | 98
RPMI 5 mM glucose + 10% dialyzed FBS, 0.0211 µM | 93 | 81.2 | 87.9
RPMI 5 mM glucose + 10% dialyzed FBS, 0.0632 µM | 89.9 | 96 | 105
RPMI 5 mM glucose + 10% dialyzed FBS, 0.19 µM | 112 | 95.5 | 104
RPMI 5 mM glucose + 10% dialyzed FBS, 0.569 µM | 100 | 103 | 97
RPMI 5 mM glucose + 10% dialyzed FBS, 1.71 µM | 101 | 97 | 106
RPMI 5 mM glucose + 10% dialyzed FBS, 5.12 µM | 99.9 | 110 | 102
RPMI 5 mM glucose + 10% dialyzed FBS, 15.4 µM | 108 | 97.9 | 103
RPMI 5 mM glucose + 10% dialyzed FBS, 46.1 µM | 90.3 | 95.6 | 97.3

AUC of viability dose-response curve
Details | [4] | [5] | [6]
HPLM + 10% dialyzed FBS | 454 | 445 | 470
RPMI 5 mM glucose + 10% FBS | 464 | 434 | 470
RPMI 5 mM glucose + 10% dialyzed FBS | 462 | 440 | 465
